From PMC4357015, “Structure, Function and Inhibition of the Phosphoethanolamine Methyltransferases of the Human Malaria Parasites Plasmodium vivax and Plasmodium knowlesi” (Scientific Reports, 2015)

Assays:
PkPMT = molecular target: T1, PkPMT (Plasmodium knowlesi, UniProt A0A384KJX3); test: radiometric PMT transmethylation assay, inhibition of PkPMT; assay type: biochemical; conditions: P-Etn 2 mM, SAM 1.5 mM; inhibitor 0, 100, 500, 1000 μM; read-out: IC50, inhibition of PkPMT activity
T1 sequence (A0A384KJX3 1-264): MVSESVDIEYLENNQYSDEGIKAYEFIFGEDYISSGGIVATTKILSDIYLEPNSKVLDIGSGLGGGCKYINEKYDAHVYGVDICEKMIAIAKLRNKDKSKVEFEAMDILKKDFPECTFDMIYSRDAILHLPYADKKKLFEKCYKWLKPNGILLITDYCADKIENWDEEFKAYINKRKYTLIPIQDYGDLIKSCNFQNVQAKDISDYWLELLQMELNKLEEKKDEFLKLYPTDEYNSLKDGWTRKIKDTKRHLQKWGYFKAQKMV
Description: (§1) Figure 3 Amodiaquine (AQ) and NSC158011 inhibit the activity of PvPMT and PkPMT. Enzyme inhibition assays with different concentrations of Amodiaquine (AQ), NSC158011 and Chloroquine (CQ) were carried out at constant P-Etn (2 mM) and SAM (1.5 mM) concentrations. The activity in the absence of any drug was taken as 100% and % enzyme activity was calculated in the presence of different drug concentrations (100, 500, 1000 μM). To determine the concentration that results in 50% inhibition of enzyme activity (IC50), the data were fitted to a non-linear regression analysis in the following equation Y = 100/(1 + ([X]/IC50)), where Y is % enzyme activity and X is drug concentration using Graph pad software.
(§2) For enzyme kinetics studies recombinant histidine-tagged proteins were expressed using 1 mM IPTG for 4 h, purified using Ni-affinity purification and dialyzed. As expected, purified proteins migrated in SDS-PAGE gels at approximately 31 kDa. The purified proteins were stored in HEPES-KOH buffer (pH 7.4) at 4°C and were assayed within a month of purification. During this time, the integrity of the protein was assessed by SDS-PAGE. The kinetic properties of enzymes were assessed using radiometric assay wherein incorporation of radioactive labeled methyl donor (100nCi [methyl-^14C] SAM, Perkin elmer NEC363010UC) or (200nCi [methyl-^3H] SAM, Perkin Elmer NET155H250UC) was measured. […]

pem1Δpem2Δ-pYES2.1-PvPMT = test: yeast growth inhibition, pem1Δpem2Δ strain expressing PvPMT; assay type: cell-based; conditions: 100 μM AQ
Description: (§3) Figure 5 PMT-dependent inhibition of growth and PC biosynthesis by amodiaquine and NSC158011. (A–C): Growth curves of pem1Δpem2Δ-pYES2.1-PkPMT (A), pem1Δpem2Δ-pYES2.1-PvPMT (B), or Wild Type-pYES2.1- (C) strains grown in minimal medium containing 4% galactose and 1 mM ethanolamine in the presence or absence of 100 μM choline and 100 μM amodiaquine (AQ) as indicated. Growth curves of pem1Δpem2Δ-pYES2.1-PkPMT (D), pem1Δpem2Δ-pYES2.1-PvPMT (E), or Wild Type-pYES2.1- (F) strains maintained in minimal medium containing 4% galactose and 1 mM ethanolamine in the presence or absence of 100 μM choline and 10 μM NSC158011.
(§4) pem1Δpem2Δ-pYES2.1, pem1Δpem2Δ-pYES2.1-PkPMT, pem1Δpem2Δ-pYES2.1-PvPMT, and pem1Δpem2Δ-pYES2.1-PfPMT yeast strains were pre-grown overnight in uracil dropout synthetic galactose (4%) (SG-URA) medium supplemented with 2 mM ethanolamine (Etn). Cells were diluted to an A600 = 0.001 in fresh SG-URA medium supplemented with 2 mM Etn in the presence or absence of 100 μM Choline (Cho). Cells were grown at 30°C and the growth was monitored by measuring the A600. […]

pem1Δpem2Δ-pYES2.1-PkPMT = test: yeast growth inhibition, pem1Δpem2Δ strain expressing PkPMT; assay type: cell-based; conditions: 100 μM AQ
Description: as §3, §4

PvPMT = molecular target: T2, PvPMT (Plasmodium vivax, UniProt A5K867); test: radiometric PMT transmethylation assay, inhibition of PvPMT; assay type: biochemical; conditions: P-Etn 2 mM, SAM 1.5 mM; inhibitor 0, 100, 500, 1000 μM; read-out: IC50, inhibition of PvPMT activity
T2 sequence (A5K867 1-264): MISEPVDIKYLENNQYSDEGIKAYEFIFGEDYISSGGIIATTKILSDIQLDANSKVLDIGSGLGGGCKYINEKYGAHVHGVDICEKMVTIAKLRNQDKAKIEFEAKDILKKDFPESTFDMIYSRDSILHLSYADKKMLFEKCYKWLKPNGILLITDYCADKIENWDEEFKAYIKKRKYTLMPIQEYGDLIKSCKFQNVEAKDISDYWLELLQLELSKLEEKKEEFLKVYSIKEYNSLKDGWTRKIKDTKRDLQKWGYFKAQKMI
Description: as §1, §2

[1] = ethanolamine medium without choline

## CCN(CC)Cc1cc(Nc2ccnc3cc(Cl)ccc23)ccc1O [AQ, amodiaquine]
PkPMT
  IC50: 398 µM
pem1Δpem2Δ-pYES2.1-PvPMT; 100 μM choline
  growth of pem1Δpem2Δ+PvPMT strain in media supplemented with choline: no effect
pem1Δpem2Δ-pYES2.1-PvPMT; [1]
  growth of pem1Δpem2Δ+PvPMT strain: significantly inhibited
pem1Δpem2Δ-pYES2.1-PkPMT; 100 μM choline
  growth of pem1Δpem2Δ+PkPMT strain in media supplemented with choline: no effect
pem1Δpem2Δ-pYES2.1-PkPMT; [1]
  growth of pem1Δpem2Δ+PkPMT strain: significantly inhibited
PvPMT
  IC50: 220 µM
